Results taken from US11432549B2, “Carbamoyl triazolinone based herbicide combinations and method of use” (Arysta LifeScience Corporation, priority 2009, dated 2022).
Where two headings read alike, the source gives them in different places.

Assays:
Green Foxtail = assay: Ex 5/7 greenhouse spray, bleaching/injury ratings; format: in vivo; conditions: Green Foxtail
Procedure: (§1) Containers were watered as needed based on species and water usage. The greenhouse was heated to keep temperatures above 50° F. (10° C.) and ventilated as needed to keep temperatures below 100° F. (38° C.). Typical daytime temperatures in the greenhouse were 80-90° F. (27-32° C.) and nighttime temperatures were between 50-60° F. (10-16° C.). The soil employed was Promix BX potting soil. Overall moisture conditions were normal and the closest weather station was on-site. Conditions and equipment employed in this Example are tabulated below in Tables 5-1 and 5-2.
(§2) All containers were moved outdoors from the greenhouse and arranged in blocks by treatment for the herbicide applications. A single spray application was applied to each block containing four repetitions of each species for each treatment. Plants were then immediately returned to the greenhouse and irrigated with approximately ¼″ water 1-3 hrs after treatment with a hose end sprayer. Only the Poa plants were trimmed with scissors two days prior to treatment at a height of approximately 3 inches.
(§3) Referring to FIGS. 2A-B, 3A-C, 4A-C, and 5A-D, all ratings of injury or bleaching are based on a scale from 1 to 9. […] Any bleaching measurement 4 and above was considered unacceptable for desirable turf species. In injury measurements, 1 indicates no injury while 9 indicates a dead plant. Any injury measurement 4 and above was considered unacceptable for desirable turf species). Density correlates with percent cover where 1 indicates no grass while 9 indicates a full pot.
(§4) Replications employed include 4, Untreated treatments: 1, Design: Randomized Complete Block, Treatment units: US standard, Treated plot size Width: 4 feet, Treated plot size Length: 4 feet, Application volume: 50 gal/ac, Mix size: 0.5562 liters, Mix overage: 100%, Format definitions: G-All7.DEF, G-All7.FRM.
(§5) In evaluating synergism, the data from Example 5 above were converted to % of control. This was done based on the data provided on a 1-9 scale detailed in Example 5. Expected values were computed from the % of control data by the formula for expected control=[…], where A is the % of control value for herbicide A alone and B is the % of control value for herbicide B alone.

Crabgrass sp. = assay: Ex 5/7 greenhouse spray, bleaching/injury/density ratings; format: in vivo; conditions: Crabgrass
Procedure: as §1, §2
(§6) Transplanted tillering Kentucky Bluegrass was 5 to 6 months old, transplanted Poa annua was 5 to 6 months old. Tall fescue was seeded into the crabgrass pots. St. Augustine plants (Floratam and Saphire) were shipped from Port St. Lucie, Fla. Only two replicates of Saphire St. Augustine grass were used due to plant availability.
as §3, §4, §5

Poa annua = assay: Ex 5/7 greenhouse spray, bleaching/injury ratings; format: in vivo; conditions: Poa
Procedure: as §1, §2, §6, §3, §4, §5

St. Augustine-Sapphire = conditions: in vivo
Procedure: as §1, §2, §6, §3, §4, §5

St. Augustine-Floratum = conditions: St. Augustine Floratam
Procedure: as §1, §2, §6, §3, §4, §5

Digitaria ciliaris = assay: Ex 1 pot test, visual % damage; format: in vivo
[1] = Days After First/Last Applic. 41 41, Trt-Eval Interval 31 DA-A

Which results are given for CC(C)c1nn(C(=O)NC(C)(C)C)c(=O)n1N [2 Amicarbazone]?
Injury (Green Foxtail; 6 DA-A): 1.5 f; Injury (Green Foxtail; 7 DA-A): 1.5 c; Bleaching (Green Foxtail; 10 DA-A): 1.0 c; Bleaching (Green Foxtail; 14 DA-A): 1; Injury (Green Foxtail; 14 DA-A): 1.3; Bleaching (Green Foxtail; 16 DA-A): 1; Injury (Green Foxtail; 16 DA-A): 1.8; Bleaching (Green Foxtail; 20 DA-A): 1.3 c; Injury (Green Foxtail; 20 DA-A): 1.8; Injury (Green Foxtail; 24 DA-A): 2; Bleaching (Green Foxtail; 31 DA-A): 3.0 a; Injury (Green Foxtail; 31 DA-A): 2.8; Bleaching (Crabgrass sp.; 6 DA-A): 1.3 f; Injury (Crabgrass sp.; 6 DA-A): 1.5; Bleaching (Crabgrass sp.; 7 DA-A): 1.0 c; Injury (Crabgrass sp.; 7 DA-A): 1.0 e; Bleaching (Crabgrass sp.; 10 DA-A): 1.0 c; Bleaching (Crabgrass sp.; 14 DA-A): 1.0 c; Injury (Crabgrass sp.; 14 DA-A): 1; Bleaching (Crabgrass sp.; 16 DA-A): 1.3 c; Injury (Crabgrass sp.; 16 DA-A): 1.3; Bleaching (Crabgrass sp.; 20 DA-A): 1.3; Injury (Crabgrass sp.; 20 DA-A): 1.3 c; % Crab Cvr (Crabgrass sp.; 24 DA-A): 7.8 a %; Injury (Crabgrass sp.; 24 DA-A): 1.5 c; % Crab Cvr (Crabgrass sp.; 31 DA-A): 8.3 a %; Bleaching (Crabgrass sp.; 31 DA-A): 1.0 b; % Crab Cvr (Crabgrass sp.; 41 DA-A): 9.0 a %; Bleaching (Crabgrass sp.; 41 DA-A): 1.0 a; Bleaching (Poa annua; 6 DA-A): 1.0 a; Bleaching (Poa annua; 7 DA-A): 1.0 a; Injury (Poa annua; 10 DA-A): 1.0 e; Bleaching (Poa annua; 14 DA-A): 1.0 b; Injury (Poa annua; 14 DA-A): 1.8; Bleaching (Poa annua; 16 DA-A): 1.0 b; Injury (Poa annua; 16 DA-A): 2.5; Bleaching (Poa annua; 20 DA-A): 1.0 a; Injury (Poa annua; 20 DA-A): 2.5; Injury (Poa annua; 24 DA-A): 2.5 cd; Injury (Poa annua; 31 DA-A): 3.3 c; Injury (Poa annua; [1]): 3.8 c; TurfQuality (St. Augustine-Sapphire): 7.0 a; Bleaching (St. Augustine-Floratum; 6 DA-A): 1.0 a; Bleaching (St. Augustine-Floratum; 7 DA-A): 1.0 c; Bleaching (St. Augustine-Floratum; 10 DA-A): 1.0 c; Bleaching (St. Augustine-Floratum; 14 DA-A): 1.0 c; Bleaching (St. Augustine-Floratum; 16 DA-A): 1.0 e; Bleaching (St. Augustine-Floratum; 20 DA-A): 1.0 b; Bleaching (St. Augustine-Floratum; 31 DA-A): 1.0 c; Bleaching (St. Augustine-Floratum; [1]): 1.0 a; TurfQuality (St. Augustine-Floratum; [1]): 6.8 bc

Which Injury (Green Foxtail; 6 DA-A) does the source give for CC(C)c1nn(C(=O)NC(C)(C)C)c(=O)n1N [3 Amicarbazone] here?
The Injury was 3.8 de.

What about the Injury (Green Foxtail; 7 DA-A) of the same compound?
The Injury was 3.5 b.

And the Bleaching (Green Foxtail; 10 DA-A)?
Its Bleaching is 1.0 c.

What about the Bleaching (Green Foxtail; 14 DA-A) of the same compound?
Its Bleaching is 1.

And the Injury (Green Foxtail; 14 DA-A)?
The Injury was 2.5 f.

And the Bleaching (Green Foxtail; 16 DA-A)?
The Bleaching was 1.

And the Injury (Green Foxtail; 16 DA-A)?
Its Injury is 2.8 cd.

What about the Bleaching (Green Foxtail; 20 DA-A) of the same compound?
The Bleaching was 1.3 c.

What about the Injury (Green Foxtail; 20 DA-A) of the same compound?
Its Injury is 3.5 cd.

What about the Injury (Green Foxtail; 24 DA-A) of the same compound?
The Injury was 3.8 c.

And the Bleaching (Green Foxtail; 31 DA-A)?
The Bleaching was 3.3 a.

What about the Injury (Green Foxtail; 31 DA-A) of the same compound?
Its Injury is 5.3 bc.

What about the Bleaching (Crabgrass sp.; 6 DA-A) of the same compound?
The Bleaching was 1.0 f.

And the Injury (Crabgrass sp.; 6 DA-A)?
The Injury was 1.

And the Bleaching (Crabgrass sp.; 7 DA-A)?
Its Bleaching is 1.0 c.

What about the Injury (Crabgrass sp.; 7 DA-A) of the same compound?
The Injury was 1.0 e.

What about the Bleaching (Crabgrass sp.; 10 DA-A) of the same compound?
The Bleaching was 1.0 c.

What about the Bleaching (Crabgrass sp.; 14 DA-A) of the same compound?
Its Bleaching is 1.0 c.

And the Injury (Crabgrass sp.; 14 DA-A)?
Its Injury is 1.

What about the Bleaching (Crabgrass sp.; 16 DA-A) of the same compound?
Its Bleaching is 1.0 c.

What about the Injury (Crabgrass sp.; 16 DA-A) of the same compound?
The Injury was 1.5.

And the Bleaching (Crabgrass sp.; 20 DA-A)?
Its Bleaching is 1.

And the Injury (Crabgrass sp.; 20 DA-A)?
The Injury was 1.5 c.

What about the “% Crab Cvr” value (Crabgrass sp.; 24 DA-A) of the same compound?
Its value is 6.3 b %.

What about the Injury (Crabgrass sp.; 24 DA-A) of the same compound?
Its Injury is 1.5 c.

What about the “% Crab Cvr” value (Crabgrass sp.; 31 DA-A) of the same compound?
The value was 6.3 b %.

And the Bleaching (Crabgrass sp.; 31 DA-A)?
The Bleaching was 1.0 b.

And the “% Crab Cvr” value (Crabgrass sp.; 41 DA-A)?
Its value is 6.8 b %.

What about the Bleaching (Crabgrass sp.; 41 DA-A) of the same compound?
Its Bleaching is 1.0 a.

And the Bleaching (Poa annua; 6 DA-A)?
The Bleaching was 1.0 a.

And the Bleaching (Poa annua; 7 DA-A)?
Its Bleaching is 1.0 a.

What about the Injury (Poa annua; 10 DA-A) of the same compound?
The Injury was 3.5 bc.

What about the Bleaching (Poa annua; 14 DA-A) of the same compound?
The Bleaching was 1.8 b.

And the Injury (Poa annua; 14 DA-A)?
The Injury was 4.8 b.

What about the Bleaching (Poa annua; 16 DA-A) of the same compound?
The Bleaching was 2.0 ab.

What about the Injury (Poa annua; 16 DA-A) of the same compound?
The Injury was 5.0 bc.

What about the Bleaching (Poa annua; 20 DA-A) of the same compound?
The Bleaching was 2.0 a.

What about the Injury (Poa annua; 20 DA-A) of the same compound?
Its Injury is 5.5 c.

And the Injury (Poa annua; 24 DA-A)?
The Injury was 5.3 b.

What about the Injury (Poa annua; 31 DA-A) of the same compound?
The Injury was 7.0 ab.

And the Injury (Poa annua; [1])?
The Injury was 7.5 ab.

What about the TurfQuality (St. Augustine-Sapphire) of the same compound?
Its TurfQuality is 7.5 a.

And the Bleaching (St. Augustine-Floratum; 6 DA-A)?
Its Bleaching is 1.0 a.

And the Bleaching (St. Augustine-Floratum; 7 DA-A)?
The Bleaching was 1.0 c.

And the Bleaching (St. Augustine-Floratum; 10 DA-A)?
Its Bleaching is 1.0 c.

And the Bleaching (St. Augustine-Floratum; 14 DA-A)?
The Bleaching was 1.0 c.

And the Bleaching (St. Augustine-Floratum; 16 DA-A)?
Its Bleaching is 1.3 e.

What about the Bleaching (St. Augustine-Floratum; 20 DA-A) of the same compound?
Its Bleaching is 1.3 b.

And the Bleaching (St. Augustine-Floratum; 31 DA-A)?
The Bleaching was 1.0 c.

What about the Bleaching (St. Augustine-Floratum; [1]) of the same compound?
Its Bleaching is 1.0 a.

What about the TurfQuality (St. Augustine-Floratum; [1]) of the same compound?
Its TurfQuality is 7.3 ab.

How did the weeding effect index (Digitaria ciliaris; 5 DAT, all tested dose rate, one-leaf stage) turn out when CCc1cccc(C)c1N(COC(C)C)C(=O)CCl [Propisochlor, 2-chloro-N-(2-ethyl-6-methylphenyl)-N-[(1-methylethoxy)methyl]acetamide] was run?
Its weeding effect index is “less than 50%”.

What about the percentage control (Digitaria ciliaris; single application 50 g/ha, 5 DAT) of the same compound?
Its percentage control is 28%.

What about the percentage control (Digitaria ciliaris; single application 50 g/ha, 8 DAT) of the same compound?
Its percentage control is 70%.

And the percentage control (Digitaria ciliaris; single application 50 g/ha, 14 DAT)?
Its percentage control is 76%.

And the percentage control (Digitaria ciliaris; single application 50 g/ha, 21 DAT)?
The percentage control was 88%.

What about the percentage control (Digitaria ciliaris; single application 50 g/ha, 28 DAT) of the same compound?
The percentage control was 82%.

What about the percentage control (Digitaria ciliaris; single application 100 g/ha, 5 DAT) of the same compound?
Its percentage control is 42%.

What about the percentage control (Digitaria ciliaris; single application 100 g/ha, 8 DAT) of the same compound?
Its percentage control is 78%.

What about the percentage control (Digitaria ciliaris; single application 100 g/ha, 14 DAT) of the same compound?
The percentage control was 86%.

What about the percentage control (Digitaria ciliaris; single application 100 g/ha, 21 DAT) of the same compound?
Its percentage control is 94%.

What about the percentage control (Digitaria ciliaris; single application 100 g/ha, 28 DAT) of the same compound?
The percentage control was 92%.

And the percentage control (Digitaria ciliaris; single application 200 g/ha, 5 DAT)?
The percentage control was 44%.

What about the percentage control (Digitaria ciliaris; single application 200 g/ha, 8 DAT) of the same compound?
The percentage control was 80%.

What about the percentage control (Digitaria ciliaris; single application 200 g/ha, 14 DAT) of the same compound?
The percentage control was 90%.

What about the percentage control (Digitaria ciliaris; single application 200 g/ha, 21 DAT) of the same compound?
The percentage control was 98%.

What about the percentage control (Digitaria ciliaris; single application 200 g/ha, 28 DAT) of the same compound?
The percentage control was 98%.
